Consider 16 compounds from patent US8063077B2, “Factor Xa inhibitors” (Millennium Pharmaceuticals, Inc., priority 2006, dated 2011).

Data set [1] in a line: Pharmacokinetics of Compound 10 in rat (IV and PO), plasma and urine by LC/MS/MS. It is filed as in vivo, male Sprague-Dawley rats. Set-up: AUC/D (dose-normalized AUC(0-inf)): unit not given here. As to conditions: mean ± SD. How it is done:
Compound 10 was used in the rat investigation. An intravenous (IV) and oral (PO) dose of Compound 10 (1.0 and 10 mg/kg, respectively) was prepared. The IV dose was solubilized in 50% PEG300 to yield a final concentration of 1.0 mg/mL with a final pH of 5.13. The PO dose was suspended in 0.5% methylcellulose at a concentration of 2.0 mg/mL with a final pH of 2.70.
A total of six male Sprague-Dawley rats (n=3/dosing group) from Charles River Laboratories (Hollister, Calif.), three male beagle dogs from Marshall BioResources (North Rose, N.Y.) and three male rhesus monkeys were utilized. All surgical procedures in rat (femoral and jugular vein catheterizations) were performed 8 days prior to utilization in the study and rats were acclimated in-house 5 days prior to utilization. Dogs were acclimated in-house at least seven days prior to utilization and were returned to the colony at the completion of the study. Monkey studies were conducted by an off-site contract laboratory.
All animals were fasted from the afternoon prior to study initiation to two hours post-dose (approximately 18 hours). Water was provided ad libitum. All animal rooms were on a 12 hour light-dark cycles (6 A.M. to 6 P.M.). On the morning of experimentation, animals were weighed. Rat femoral and jugular (IV only) vein blood lines were exteriorized and attached to access ports. […]
(§1) All animals were dosed based on individual weights with a PO gavage volume of 5.0 mL/kg and an IV bolus dose volume of 1.0 mL/kg. […] At collection times, urine volume and water consumption was recorded. […]
(§2) Plasma and urine samples were analyzed for Compound 10 concentration using a liquid chromatography tandem mass spectrometry (LC/MS/MS). […] The peak areas of the m/z 411→250 product ion (Compound 10) were measured against those of the m/z 470→342 product ion (N-(2-(5-chloropyridin-2-ylcarbaomoyl)-4-methoxyphenyl)-4-(N,N-dimethylcarbamimidoyl)-2-fluorobenzamide) in positive ion mode. […]
(§3) Sample Compound 10 concentrations below the lower limit of quantitation (LLQ) were reported as <0.500 ng/mL. […]

Data set [2] concerns the target T1, human plasma protein factor Xa (Homo sapiens, UniProt P00742).
T1 construct: The human plasma protein factor Xa was purchased from Haematologic Technologies; purchased Haematologic Technologies (Essex Junction, Vt.); host or cells: human plasma
The experiment in a line: Factor Xa IC50 determination, cleavage of paranitroanilide substrate S-2765. As to conditions: factor Xa 1 nM, S2765 100 μM, Tris buffered saline pH 7.4, 5% DMSO. It is filed as biochemical. An excerpt:
This example illustrates methods for evaluating the compounds of the invention, along with results obtained for such assays. The in vitro and in vivo human Factor Xa activities of the inventive compounds can be determined by various procedures known in the art, such as a test for their ability to inhibit the activity of human plasma Factor Xa. […] The IC50 value is the concentration (in nM) of the compound required to provide 50% inhibition of human Factor Xa proteolytic activity.
An in vitro assay for detecting and measuring inhibition activity against Factor Xa is as follows:
The substrate S-2765 (Z-D-Arg-Gly-Arg-pNA•HCl) was obtained from Diapharma (West Chester, Ohio).
The human plasma protein factor Xa was purchased from Haematologic Technologies (Essex Junction, Vt.).
All assays, which are performed in 96-well microtiter plates, measure proteolytic activity of the enzyme (factor Xa) by following cleavage of a paranitroanilide peptide substrate. The assay buffer used for proteolytic assays was Tris buffered saline (20 mM Tris, 150 mM NaCl, 5 mM CaCl2, 0.1% Bovine serum albumin (BSA), 5% Dimethly Sulfoxide (DMSO) pH 7.4). In a 96-well microtiter plate, inhibitor was serially diluted to give a range of final concentrations from 0.01 nM to 10 μM. Duplicate sets of wells were assayed and control wells without inhibitor were included. Enzyme was added to each well, (factor Xa concentration=1 nM), the plate was shaken for 5 seconds and then incubated for 5 minutes at room temperature. S2765 was added (100 μM final) and the plate was shaken for 5 seconds (final volume in each well was 200 μl). The degree of substrate hydrolysis was measured at 405 nm on a Thermomax plate reader (Molecular Devices, Sunnyvale, Calif.) for 2 minutes. The initial velocities of substrate cleavage (mOD/min), for each range of inhibitor concentrations, were fitted to a four parameter equation using Softmax data analysis software. The parameter C, derived from the resulting curve-fit, corresponded to the concentration for half maximal inhibition (IC50).

A short description of data set [3]: Pharmacokinetics of Compound 10 in monkey (IV and PO), plasma by LC/MS/MS. It is filed as in vivo, male rhesus monkeys. Set-up: AUC/D (dose-normalized AUC(0-inf)): unit not given here. To be noted: mean ± SD. How it is done:
(§4) For the dog and monkey study, Compound 10 was also used. An IV and PO dose of Compound 10 (1.0 and 5.0 mg/kg, respectively) was prepared. The IV dose was formulated similarly to that used in the rat study (50% PEG300 in water). The PO dose was suspended in 0.5% methylcellulose at a concentration of 1.0 mg/mL with a final pH of approximately 3.50.
(§5) A total of six male Sprague-Dawley rats (n=3/dosing group) from Charles River Laboratories (Hollister, Calif.), three male beagle dogs from Marshall BioResources (North Rose, N.Y.) and three male rhesus monkeys were utilized. […]
as §1, §2, §3

A short description of data set [4]: Pharmacokinetics of Compound 10 in dog (IV and PO), plasma by LC/MS/MS. It is filed as in vivo, male beagle dogs. Set-up: AUC/D (dose-normalized AUC(0-inf)): unit not given here. As to conditions: mean ± SD. How it is done: as §4, §5, §1, §2, §3

T1 sequence (P00742 235-488 limits assumed): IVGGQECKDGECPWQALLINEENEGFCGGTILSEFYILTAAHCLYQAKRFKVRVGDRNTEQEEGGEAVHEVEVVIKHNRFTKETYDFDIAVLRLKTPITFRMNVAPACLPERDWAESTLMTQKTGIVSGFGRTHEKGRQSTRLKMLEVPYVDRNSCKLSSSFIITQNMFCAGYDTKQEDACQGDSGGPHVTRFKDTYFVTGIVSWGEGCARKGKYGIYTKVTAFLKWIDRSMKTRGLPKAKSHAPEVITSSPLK
T1 sequence (P00742 41-179 partner limits assumed): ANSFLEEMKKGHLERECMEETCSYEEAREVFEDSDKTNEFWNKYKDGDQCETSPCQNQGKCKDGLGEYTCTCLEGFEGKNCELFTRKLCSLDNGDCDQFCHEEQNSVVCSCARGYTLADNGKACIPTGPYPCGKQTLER

For orientation: IC50 means the concentration needed to halve the response being measured. With `O=C(NCc1cn(-c2ccc(-n3ccccc3=O)cc2)cn1)c1ccc(Cl)s1` [Compound 10, 5-Chloro-N-((1-(4-(2-oxopyridin-1(2H)-yl)phenyl)-1H-imidazol-4-yl)methyl)thiophene-2-carboxamide], in data set [1] (intravenous, 1 mg/kg, urine to 24 hours post-dose), the “Dose excreted unchanged in urine” value is on record as 0.248 ± 0.019%. The bioavailability worked out at 127 ± 23.1% in data set [1] (male, Sprague-Dawley, plasma, oral 10 mg/kg vs intravenous 1 mg/kg, read-out: F (absolute bioavailability)); 71.6 ± 18.1% in data set [3] (male, rhesus, rhesus monkey, plasma, oral 5 mg/kg vs intravenous 1 mg/kg, read-out: F (absolute bioavailability)); 68.5 ± 15.5% in data set [4] (male, beagle, plasma, oral 5 mg/kg vs intravenous 1 mg/kg, read-out: F (absolute bioavailability)). The “AUC/D (dose-normalized AUC(0-inf))” value in data set [1] (oral, 10 mg/kg, n=3) turned out to be 6859 ± 1249; in data set [3] (oral, 5 mg/kg, n=3), 8430 ± 3449; in data set [4] (oral, 5 mg/kg, n=3), 1095 ± 295. The IC50 in data set [2] was ≤ 100 nM.
As for `O=C(NCc1cn(-c2ccc(-n3cccc(O)c3=O)cc2)cn1)c1ccc(Cl)s1` [Compound 42, 5-chloro-N-((1-(4-(3-hydroxy-2-oxopyridin-1(2H)-yl)phenyl)-1H-imidazol-4-yl)methyl)thiophene-2-carboxamide], the IC50 in data set [2] is ≤ 100 nM.
As for `O=C1CN(c2ccc(-n3cnc(CNC(=O)c4ccc(Cl)s4)c3)cc2)C(=O)CN1` [Compound 20, 5-Chloro-N-((1-(4-(2,5-dioxopiperazin-1-yl)phenyl)-1H-imidazol-4-yl)methyl)thiophene-2-carboxamide], the 50% inhibitory concentration (IC50) in data set [2] was ≥ 500 nM.
Regarding `O=C(NCc1cn(-c2ccc(-n3ccccc3=O)cc2OCCN2CCCCC2)cn1)c1ccc(Cl)s1` [Compound 53, 5-chloro-N-((1-(4-(2-oxopyridin-1(2H)-yl)-2-(2-(piperidin-1-yl)ethoxy)phenyl)-1H-imidazol-4-yl)methyl)thiophene-2-carboxamide], the IC50 in data set [2] is ≤ 100 nM.
On to `O=C(NCc1cn(-c2ccc(-n3ccccc3=O)cc2N2CCSCC2)cn1)c1ccc(Cl)s1` [Compound 24, 5-Chloro-N-((1-(4-(2-oxopyridin-1(2H)-yl)-2-thiomorpholinophenyl)-1H-imidazol-4-yl)methyl)thiophene-2-carboxamide], for which the 50% inhibitory concentration (IC50) in data set [2] is ≤ 100 nM.
In data set [2], `O=C(NCc1cn(-c2ccc(-n3ccc(O)cc3=O)cc2)cn1)c1ccc(Cl)s1` [Compound 46, 5-chloro-N-((1-(4-(4-hydroxy-2-oxopyridin-1(2H)-yl)phenyl)-1H-imidazol-4-yl)methyl)thiophene-2-carboxamide] had an IC50 of 100 to 500 nM.
For `C[S+]([O-])c1nc(CNC(=O)c2ccc(Cl)s2)cn1-c1ccc(-n2ccccc2=O)cc1` (centres unmarked) [Compound 57, 5-chloro-N-((2-(methylsulfinyl)-1-(4-(2-oxopyridin-1(2H)-yl)phenyl)-1H-imidazol-4-yl)methyl)thiophene-2-carboxamide], the IC50 in data set [2] is ≤ 100 nM.
For `O=C(NCc1cn(-c2ccc(-n3cccc(OCCO)c3=O)cc2)cn1)c1ccc(Cl)s1` [Compound 59, 5-chloro-N-((1-(4-(3-(2-hydroxyethoxy)-2-oxopyridin-1(2H)-yl)phenyl)-1H-imidazol-4-yl)methyl)thiophene-2-carboxamide], in data set [2], the IC50 is ≤ 100 nM.
The same measure, in the same setting: then `CS(=O)(=O)c1nc(CNC(=O)c2ccc(Cl)s2)cn1-c1ccc(-n2ccccc2=O)cc1` [Compound 56, 5-chloro-N-((2-(methylsulfonyl)-1-(4-(2-oxopyridin-1(2H)-yl)phenyl)-1H-imidazol-4-yl)methyl)thiophene-2-carboxamide], with ≤ 100 nM.
On the same count and under the same terms, to `O=C(NCc1cn(-c2ccc(N3CCOCC3=O)cc2)cn1)c1ccc(Cl)s1` [Compound 11, 5-Chloro-N-((1-(4-(3-oxomorpholino)phenyl)-1H-imidazol-4-yl)methyl)thiophene-2-carboxamide] belongs ≤ 100 nM; to `Cc1ccc(=O)n(-c2ccc(-n3cnc(CNC(=O)c4ccc(Cl)s4)c3)cc2)c1` [Compound 45, 5-chloro-N-((1-(4-(5-methyl-2-oxopyridin-1(2H)-yl)phenyl)-1H-imidazol-4-yl)methyl)thiophene-2-carboxamide], ≤ 100 nM.
`Cc1cccn(-c2ccc(-n3cnc(CNC(=O)c4ccc(Cl)s4)c3)cc2)c1=O` [Compound 44, 5-chloro-N-((1-(4-(3-methyl-2-oxopyridin-1(2H)-yl)phenyl)-1H-imidazol-4-yl)methyl)thiophene-2-carboxamide]: the IC50 in data set [2] was ≤ 100 nM.
As for `O=C(NCc1cn(-c2ccc(-n3ncccc3=O)cc2)cn1)c1ccc(Cl)s1` [Compound 13, 5-Chloro-N-((1-(4-(6-oxopyridazin-1(6H)-yl)phenyl)-1H-imidazol-4-yl)methyl)thiophene-2-carboxamide], the concentration for half-maximal inhibition (IC50) in data set [2] is ≥ 500 nM.
The compound `O=C(NCc1cn(-c2ccc(N3CCNC3=O)cc2)cn1)c1ccc(Cl)s1` [Compound 19, 5-Chloro-N-((1-(4-(2-oxoimidazolidin-1-yl)phenyl)-1H-imidazol-4-yl)methyl)thiophene-2-carboxamide] gave an IC50 in data set [2] of 100 to 500 nM.
Regarding `Cc1c(CNC(=O)c2ccc(Cl)s2)ncn1-c1ccc(-n2ccccc2=O)cc1` [Compound 63, 5-Chloro-N-((5-methyl-1-(4-(2-oxopyridin-1(2H)-yl)phenyl)-1H-imidazol-4-yl)methyl)thiophene-2-carboxamide], in data set [2], the half-inhibitory concentration (IC50) was ≥ 500 nM.
Regarding `COc1ccc(/N=c2\ccccn2-c2ccc(-n3cnc(CNC(=O)c4ccc(Cl)s4)c3)cc2)cc1` [Compound 35, (E)-5-chloro-N-((1-(4-(2-(4-methoxyphenylimino)pyridin-1(2H)-yl)phenyl)-1H-imidazol-4-yl)methyl)thiophene-2-carboxamide], the IC50 in data set [2] was ≤ 100 nM.
